Tests used:
[1] = test system: Edible beans (Superelite variety); assay: Crop yield of edible beans (Example 35); type: in vivo; conditions: for Crop yield: control 15.00
Description: Edible beans (Superelite variety) were sprayed once or twice with the compositions according to the invention.
From the data of Table 29 conclusions can be drawn for the correlation between the development stage of the stand at treatment and the effect of the treatment.

Soybean [2] = assay: Stimulation of photosynthesis, 14CO2 incorporation, soybean leaf discs (Example 20); conditions: Glycine max, foliar, 2 hours
Procedure: The compositions according to the invention were diluted with distilled water to an active agent content of 200 ppm, and leaf discs of alfalfa, soybean, bean and maize, weighing 200 mg each, were floated on the surfaces of the resulting solutions for 2 hours. Thereafter the treated leaf discs were place into the assimilation chamber of an appropriate measuring apparatus, and a known amount of radioactive carbon dioxide gas (^14 CO2) was introduced into the assimilation chamber from a reservoir by means of a gas feeder for 0.5 hours under carefully controlled illumination conditions. Thereafter the leaf discs were frozen with liquid nitrogen, triturated with 50% by weight perchloric acid in a potter homogenizer, and stock solutions were prepared from the resulting mixtures. The specific radioactivities of the stock solutions were determined by liquid scintillation.
(§1) In the control test untreated leaf discs were exposed to labelled carbon, dioxide, and the amount of carbon dioxide incorporated under such conditions was regarded as standard.

Tobacco callus = assay: Growth of tobacco callus vs kinetin (Example 14); type: cell-based; conditions: 2 ppm active agent
Procedure: An untreated culture medium served as control. Tobacco callus was grown on the treated and untreated culture media (incubation period: 3 weeks), and the daily growth, the increase in cell number and the frequency of mitosis were measured according to the method of Skoog.
The test described in Example 13 was repeated so that a culture medium containing 1 ppm of kinetin was used as control, and the compositions according to the invention were applied in amounts corresponding to 2 ppm of active agent.

Barley = assay: Inhibition of the decomposition of chlorophyll in barley leaf segments; conditions: 4 days dark
Procedure: (§2) The active agent to be tested was dissolved in distilled water to form a 200 ppm solution, and leaf segments of the plants under examination, weighing 200 mg, were floated on the surface of the solution for 4 days in the dark. Thereafter chlorphyll was extracted from the leaf segments with methanol.
(§3) To determine the starting state, chlorophyll was extracted with methanol from untreated leaf segments weighing 200 mg. In the control test the leaf segments, weighing 200 mg, were floated on the surface of distilled water for 4 days in the dark, and then chlorophyll was extracted from the leaf segments with methanol.
(§4) The chlorophyll concentration was determined by measuring the extinction of the extracts at 665 mμ.

Bean [3] = assay: Stimulation of photosynthesis, 14CO2 incorporation, bean leaf discs (Example 20); conditions: foliar, 2 hours
Procedure: The specific radioactivities of the stock solutions were determined by liquid scintillation. In the control test untreated leaf discs were exposed to labelled carbon, dioxide, and the amount of carbon dioxide incorporated under such conditions was regarded as standard.

Soybean [4] = assay: Total and protein nitrogen content of soybean (Example 39); type: in vivo
Description: The effects of 1,4-dihydroxyphthalazine and salts thereof exerted on the total nitrogen content and protein nitrogen content of soybean were examined as described in Example 27. The plants were sprayed with the compositions according to the invention at the beginning of the flowering of the apical cluster.

hybrid maize = assay: Grain yield of maize (Example 29); type: in vivo; conditions: for Grain yield, increase: in vivo; for Grain yield: seed dressing 0.5 kg/ha + sprays 3, 1, 2 kg/ha, control 132.8
Procedure: The compositions according to the invention were applied as seed dressing agents onto the sowing-seeds of hybrid maize in a dosis of 0.5 kg/ha. The powdery compositions were wetted with water prior to application. The stand was sprayed three times during the cultivation period: first at the four-leaves development stage with a dosis of 3 kg/ha, then prior to tasseling with a dosis of 1 kg/ha, and finally prior to pollen ripening with a dosis of 2 kg/ha. The crop was evaluated as May shelled corn.

Soybean [5] = assay: Inhibition of the decomposition of chlorophyll in soybean leaf segments; conditions: 4 days dark
Procedure: as §2, §3, §4

Bean [6] = assay: Inhibition of the decomposition of chlorophyll in bean leaf segments; conditions: 4 days dark
Procedure: as §2, §3, §4

Maize [7] = assay: Stimulation of photosynthesis, 14CO2 incorporation, maize leaf discs (Example 20); conditions: Zea mays, foliar, 2 hours
Procedure: The specific radioactivities of the stock solutions were determined by liquid scintillation.
as §1

maize for silage = assay: Maize for silage field tests 1979, Boly (Example 28); type: in vivo
Description: The effects of the cytokinin-like regulators on the crop yield, crude protein content and real protein content of maize for silage, observed under field conditions in the tests performed in 1979 at the Agricultural Combinate of Boly, Hungary, are listed in Table 20.

Alfalfa [8] = assay: Alfalfa field tests 1979, Boly (Example 26); type: in vivo
Description: The effects of the compositions according to the invention exerted on the crop yield (green yield), crude protein content, protein nitrogen content and C/N ratio of alfalfa, observed under field conditions in the tests performed in 1979 at the Agricultural Combinate of Boly, Hungary, are listed in Table 17.

Alfalfa [9] = assay: Inhibition of the decomposition of chlorophyll in alfalfa; conditions: 200 ppm, 100 mg green plant, control 0.78
Procedure: as §3, with “Thereafter chlorphyll was extracted from the leaf segments with methanol. To” for “To”, “methanol. […] For alfalfa and maize the chlorphyll contents of 100 mg of green plant were examined.” for “methanol.”

maize leaves = assay: Fixation of 14CO2 in maize leaves (Example 36); conditions: 18 hours
Procedure: (§5) The biological activities of cytokinin-like factors can be well characterized by measuring the intensity of the photosynthetic carbon dioxide fixation and the incorporation of labelled amino acids into the TCA-insoluble protein fraction. The intensity of photosynthetic carbon dioxide fixation was determined on maize leaves, utilizing ^14 CO2, whereas the incorporation of amino acids was examined on bean leaves, utilizing […]-^14 C.

Maize [10] = assay: Inhibition of the decomposition of chlorophyll in maize; conditions: 200 ppm, 100 mg green plant, control 0.65
Procedure: as §3, with “Thereafter chlorphyll was extracted from the leaf segments with methanol. To” for “To”, “methanol. […] For alfalfa and maize the chlorphyll contents of 100 mg of green plant were examined.” for “methanol.”

bean leaves = assay: Incorporation of Gly-2-14C in bean leaves (Example 36); conditions: 18 hours
Procedure: as §5

[11] = 2 treatments, 06.20.1979 and 07.06.1979

N=C(N)N.N=C(N)N.Oc1nnc(O)c2ccccc12 [1,4-dihydroxyphthalazine diguanidine salt]
Crop yield, increase ([1]; 1 treatment, 07.06.1979): 18.4% | Crop yield ([1]; 1 treatment, 07.06.1979): 17.77 q/ha | activation at 200 ppm (Soybean [2]): 67% | Dry weight of the callus (Tobacco callus; kinetin 1 ppm): 170.92 mg | Speed of growth (Tobacco callus; kinetin 1 ppm): 98.23 | activity at 2 ppm (Tobacco callus; Nicotiana tabacum, 504 h, kinetin 1 ppm = 100, read-out: Speed of growth, Index %): 98.2% | Chlorophyll (Barley; 200 ppm, control 3.7): 9.7 mg | activation at 200 ppm (Barley; Hordeum vulgare, foliar, 96 h, read-out: Promotion): 162% | activation at 200 ppm (Bean [3]): 4% | Protein nitrogen content (Soybean [4]; control 1.9): 3.9 % of dry substance | Total nitrogen content (Soybean [4]; control 2.6): 4.7 % of dry substance | Protein nitrogen content, increase (Soybean [4]; in vivo): 105.3% | Total nitrogen content, increase (Soybean [4]; in vivo): 81.0% | Grain yield, increase (hybrid maize): 37.0% | Grain yield (hybrid maize): 181.9 q/ha | Chlorophyll (Soybean [5]; 200 ppm, control 3.5): 5.4 mg | activation at 200 ppm (Soybean [5]; Glycine max, foliar, 96 h, read-out: Promotion): 54% | Chlorophyll (Bean [6]; 200 ppm, control 4.2): 6.5 mg | activation at 200 ppm (Bean [6]; foliar, 96 h, read-out: Promotion): 54% | activation at 200 ppm (Maize [7]): 12% | P2O5 content (maize for silage; control 7.5): 9.5 % of dry substance | Crude protein content (maize for silage; control 13.2): 16.0 % of dry substance | Green weight (maize for silage; control 310.2): 361.3 q/ha | Crude protein content, increase (maize for silage; in vivo): 21.3% | Green weight, increase (maize for silage; in vivo): 15.5% | P2O5 content, increase (maize for silage; in vivo): 27.2% | P2O5 content (Alfalfa [8]; control 8.3): 10.3 % of dry substance | Crude protein content (Alfalfa [8]; control 21.3): 25.4 % of dry substance | Green yield (Alfalfa [8]; control 120): 146 q/ha | Crude protein content, increase (Alfalfa [8]; in vivo): 19.4% | Green yield, increase (Alfalfa [8]; in vivo): 22.3% | P2O5 content, increase (Alfalfa [8]; in vivo): 24.6%

CCC[n+]1c[nH]c2ccccc21.[Br-] [N--(n-Propyl)-benzimidazolium bromide, N-(n-propyl)-benzimidazolium bromide]
Chlorophyll content (Alfalfa [9]): 0.96 mg | Fixation of 14CO2 (maize leaves; fresh weight, control 5.72): 10.52 μCi/g | Fixation of 14CO2, % (maize leaves; increase over control): 84% | Crop yield, increase ([1]; 1 treatment, 06.20.1979): 18.4% | Crop yield ([1]; 1 treatment, 06.20.1979): 17.77 q/ha | Crop yield, increase ([1]; 1 treatment, 07.06.1979): 13.5% | Crop yield ([1]; 1 treatment, 07.06.1979): 17.03 q/ha | Crop yield, increase [1, 11]: 30.1% | Crop yield [1, 11]: 19.52 q/ha | Grain yield, increase (hybrid maize): 12.4% | Grain yield (hybrid maize): 149.3 q/ha | Chlorophyll content (Maize [10]): 0.82 mg | Incorporation of Gly-2-14C (bean leaves; fresh weight, control 3.52): 4.96 μCi/g | Incorporation of Gly-2-14C, % (bean leaves; increase over control): 41%

Source: patent US4620871A (priority 1980, dated 1986)
